Key:
CB1 receptors = target: T1, CB1 receptors (Mus musculus, UniProt P47746); assay: biochemical; format: binding
T1 construct: the complete brain (excluding the cerebellum) and the spleen were quickly dissected and kept in ice; from tissue; host or cells: mouse brain (excluding cerebellum), membrane preparation
Experimental: (§1) The affinity of the synthesized compounds towards the CB1 and CB2 cannabinoidergic receptors was evaluated in vitro by radioreceptor binding studies using the method reported hereinunder.
(§2) The technique of the receptor binding allows to establish if, and with which affinity and specificity, a specific compound binds to a particular receptor. To evaluate the affinity of a specific compound to a particular receptor it is necessary to challenge in a particular tissue preparation wherein those specific receptors are present the compound to be tested with a radioactive labelled compound whose affinity for the same receptors is known. […] The amount of radioactivity present in the receptor-compound complex allows furthermore to estimate with great accuracy the amount of compound bound to the receptor. By said method it is therefore possible to establish quickly the affinity of a new compound towards a specific receptor and thus to determine its pharmacological activity. With the same experimental protocol it is possible to evaluate the affinity of the compound towards other receptors and thus establish its specificity degree toward said other receptors.
(§3) The food and water were ad libitum.
(§4) The procedure adopted, based on the use of the compound [^3H]-CP-55,940 (New England Nuclear, Boston, Mass., USA), requires the use of the mouse brain as biological tissue for the evaluation of the affinity towards the CB1 receptors and of the mouse spleen for the affinity assay for the CB2 receptors.
(§5) The animals were sacrificed by cervical dislocation and the complete brain (excluding the cerebellum) and the spleen were quickly dissected and kept in ice.
(§6) The tissue was homogenized in 15 volumes (weight/volume) of TME buffer (50 Mm Tris, 1 mM EDTA and 3 mM MgCl2, pH 7.4) by an Ultra-Turrax and subsequently centrifuged for 10 minutes at 1086×g in a centrifuge refrigerated at 4° C. The recovered supernatant was centrifuged at 45,000×g for 30 minutes at 4° C. by using a Beckman SW41 rotor and the obtained pellet was resuspended in 50 volumes of TME.
(§7) The thus obtained membranes (50-80 μg of proteins) were incubated in the presence of 1 nM of [^3H]-CP55.940 for 1 hour at 30° C. in a final volume of 0.5 ml of TME buffer containing 5 mg/ml of bovine serum albumin (BSA). The non specific binding was measured in the presence of CP55.940 at a 1 μM concentration.
(§8) All the experiments were carried out in polypropylene test tubes pretreated with Sigma-Cote (Sigma Chemical Co. Ltd., Poole, UK) for reducing non specific binding.
(§9) In order to determine the competitive inhibition binding curves, eight different concentrations of each compound were used.
(§10) Incubation was stopped by addition of TME buffer (at 4° C.) containing 5 mg/ml of BSA, and subsequent filtration under vacuum by Whatman GFC filters pretreated with 0.5% of polyethylamine (PEI) and by using a filtering device (Brandell, Gaithersburg, Md., USA). The filters were washed 3 times with […] of Tris HCl buffer (pH 7.4, 4° C.) containing 1 mg/ml of BSA and separately placed in plastic vials containing 4 ml of scintillating liquid (Ultima Gold MV, Packard).
(§11) The radioactivity present in the filters was determined by a scintillator spectrophotometer (Tricarb® 2100, Packard, Meridien, USA).
(§12) Protein determination was carried out by the Bradford method by using the protocol and the reactants supplied by Bio-Rad (Milano, Italy).

CB2 receptors = target: T2, CB2 receptors (Mus musculus, UniProt P47936); assay: biochemical; format: binding
T2 construct: the complete brain (excluding the cerebellum) and the spleen were quickly dissected and kept in ice; from tissue; host or cells: mouse spleen, membrane preparation
T2 sequence (P47936 whole entry): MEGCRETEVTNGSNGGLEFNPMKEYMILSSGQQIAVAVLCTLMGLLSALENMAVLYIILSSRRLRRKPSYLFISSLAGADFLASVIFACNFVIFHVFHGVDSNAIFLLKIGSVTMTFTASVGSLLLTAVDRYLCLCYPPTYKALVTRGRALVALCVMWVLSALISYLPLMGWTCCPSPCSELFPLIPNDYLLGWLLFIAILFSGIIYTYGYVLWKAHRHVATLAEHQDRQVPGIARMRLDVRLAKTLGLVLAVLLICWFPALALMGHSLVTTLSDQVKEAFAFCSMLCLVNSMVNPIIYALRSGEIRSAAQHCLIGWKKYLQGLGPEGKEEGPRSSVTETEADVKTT
Experimental: as §1, §2, §3, §4, §5, §6, §7, §8, §9, §10, §11, §12

old DBA/2J mice = assay: Reduction of intraocular pressure (IOP) after application to the eye, TONOLab tonometer; format: in vivo; conditions: for Intraocular Pressure Decrease: versus basal IOP; for Reduction of intraocular pressure: dose 100 μg
Description: The main risk factor in the glaucoma is represented by the high intraocular pressure (IOP). See for instance: Libby R. T. et al., Vis Neurosci. 2005 Sep.-Oct., 22(5):637-48 and Tomida I. et al., Br. J. Opthalmol. 2004 May, 88(5):708-13.
By using the animal model of old DBA/2J mice (see above) it has been evaluated the efficacy of the compound obtained in example 3.1 in reducing the IOP. As said, this compound has a good affinity towards the CB1 receptors in vitro (example 4) and a CB1 agonist action in vivo (example 5). The intraocular pressure has been determined by a TONOLab Tonometer (Tiolat Oy), as reported by M. E. Pease et al. in J. Glaucoma, 2006 December, 15(6):512-519. The compound was dispersed in the commercial emulsion Tocrisolve™, (Tocris), at a concentration of […] and applied to the eye of old DBA/2J mice (8-10 month age; basal IOP comprised between 19.0 and 22.5 mmHg). The applied emulsion volumes were such that the compound doses resulted, respectively, of 100 μg or 50 μg. WIN 55212-2 was dispersed in Tocrisolve™at the concentration of 5 mg/ml and was the reference cannabinoidergic compound. The determination of the ocular pressure was carried out every 30 minutes up to two hours starting from the administration. The obtained results (average of 6 measurements at each time for experimental groups of 8-10 animals for group/dose) are reported in Table 3. IOP decrease was expressed in percent with respect to the basal value.

[1] = test system: mouse deferent vessel (vas deferens); assay: Ex-vivo model: electrically induced contractions of the isolated deferent vessel (vas deferens); set-up: species or system albino CD1 mice; conditions: for Activity compared with the compounds of the invention: FIG. 2; for Inhibition of the contractions induced by the electric stimulus: concentrations lower than or equal to 1×10^−6 M
Description: The use of the isolated deferent vessel organ, as a highly sensitive basic system in an ex-vivo model for evaluating the activity of agonist CB1 compounds, has been described by Pertwee et al. in Br. J. Pharmacol., 105:980-4, 1992. This model has been used also to evaluate the properties of antagonist CB1 compounds and to distinguish antagonist CB1 derivatives from inverse agonist CB1 compounds (Rinaldi-Carmona et al., FEBS Lett., 350:240-4, 1994; Pertwee et al., Eur. J. Pharmacol., 456:99-106, 2002). […] This effect is correlated to the action on the prejunctional neuronal CB1 receptors with the consequent release inhibition, induced by electric stimuli, of contractile neurotransmitters (noradrenaline and ATP) (Schlicker and Kathmann, Trends Pharmacol. Sci., 22:565-72, 2001). The inhibition of the contractions induced by the electric stimulus on the deferent vessel in the presence of agonist (or partial agonist) CB1 compounds are expressed as % of contraction inhibition. Said % contraction inhibition is calculated by the ratio between the contraction amplitude determined in the presence of a given concentration of the compound and that detected in its absence (basal value). The curve of the “% of contraction inhibition” as a function of the logarithm of the concentration of agonist (or partial agonist) CB1 compounds, is sigmoidal. The use of the model for the evaluation of antagonist CB1 compounds is based on the evaluation of their efficacy in inhibiting the action of the deferent vessel of agonist (or partial agonist) CB1 compounds. The inhibition is expressed by a shifting towards the right of the curves % of inhibition of contractions/logarithm of the concentration of the agonist CB1 compound, with increasing the concentration of the antagonist CB1 compound.
As reported in the literature, the experimentation has been carried out by using albino CD1 mice weighing 30-40 grams. The mice deferent vessel was recovered and transferred into an instrument for separated organs supplied by the Firm Ugo Basile (Comerio, Italy). The initial tension was of 0.5 g. The procedure adopted is reported in Pertwee et al. in Br. J. Pharmacol., 110:1483-1490, 1993. In particular the procedure and instruments as described by S. Ruiu et al. in J.P.E.T., Vol. 306, 2003, 363-370, have been used.
In a subsequent experiment it was shown that the compound activity was antagonized by the antagonist CB1 compound N-piperidinyl-[8-chloro-1-(2,4-dichlorophenyl)-1,4,5,6-tetrahydrobenzo[6,7]cyclohepta[1,2-c]pyrazol-3-carboxamide], described by S. Ruiu et al. in J.P.E.T., Vol. 306, 2003, 363-370. The experiment was carried out by adding the antagonist (concentration in bath 1 nM) 20 minutes before the first addition of the compound of the invention.

patients = conditions: cited from earlier work
[2] = 50 μg to the eye in Tocrisolve, 30 minutes
[3] = 50 μg to the eye in Tocrisolve, 60 minutes
[4] = 50 μg to the eye in Tocrisolve, 90 minutes
[5] = 50 μg to the eye in Tocrisolve, 120 minutes
[6] = 100 μg to the eye in Tocrisolve, 30 minutes
[7] = 100 μg to the eye in Tocrisolve, 60 minutes
[8] = 100 μg to the eye in Tocrisolve, 90 minutes
[9] = 100 μg to the eye in Tocrisolve, 120 minutes

T1 sequence (P47746 whole entry): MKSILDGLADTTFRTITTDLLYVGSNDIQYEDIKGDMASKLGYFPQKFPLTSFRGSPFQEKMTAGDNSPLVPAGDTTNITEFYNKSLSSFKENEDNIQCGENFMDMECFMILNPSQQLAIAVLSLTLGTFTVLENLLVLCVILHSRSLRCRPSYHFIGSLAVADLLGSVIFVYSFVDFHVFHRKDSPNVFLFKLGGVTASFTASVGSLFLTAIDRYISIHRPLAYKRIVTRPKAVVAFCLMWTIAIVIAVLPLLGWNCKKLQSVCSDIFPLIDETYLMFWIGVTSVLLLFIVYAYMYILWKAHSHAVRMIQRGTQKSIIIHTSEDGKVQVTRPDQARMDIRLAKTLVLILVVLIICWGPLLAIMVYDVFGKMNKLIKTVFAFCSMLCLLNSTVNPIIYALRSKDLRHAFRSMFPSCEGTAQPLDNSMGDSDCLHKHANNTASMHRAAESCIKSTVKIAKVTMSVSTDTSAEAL

Cc1cc2c(s1)-c1c(c(C(=O)CC3CCCCC3)nn1-c1ccc(Cl)cc1Cl)C2 [Example 3.15, 1-(2′,4′-dichlorophenyl)-6-methyl-3-(1-oxo-2-cyclohexyleth-1-yl)-1,4-dihydro-thieno[3′,2′:4,5]cyclopenta[1,2-c]pyrazole]
Ki (CB1 receptors): 0.72 ± 0.139 µM
Ki (CB2 receptors): 0.0054 ± 0.0014 µM

CC1(C)C2CCC(CNC(=O)c3nn(-c4ccc(F)cc4F)c4c3Cc3cc(Br)sc3-4)C1C2 (centres unmarked) [Example 3.12, N-myrtanyl-6-bromo-1-(2′,4′-difluorophenyl)-1,4-dihydro-thieno[3′,2′:4,5]cyclopenta[1,2-c]pyrazole-3-carboxamide]
Ki (CB1 receptors): 0.16 ± 0.0025 µM
Ki (CB2 receptors): 0.0093 ± 0.0015 µM

Cc1cc2c(s1)-c1c(c(C(=O)NC3C4(C)CCC(C4)C3(C)C)nn1-c1ccc(Cl)cc1Cl)C2 (centres unmarked) [Compound (XD), N-fenchyl-1-(2′,4′-dichlorophenyl)-6-methyl-1,4-dihydro-thieno[3′,2′:4,5]cyclopenta[1,2-c]pyrazol-3-carboxamide]
Intraocular Pressure Decrease (old DBA/2J mice; [2]): 3.0%
Intraocular Pressure Decrease (old DBA/2J mice; [3]): 2.0%
Intraocular Pressure Decrease (old DBA/2J mice; [4]): 0.5%
Intraocular Pressure Decrease (old DBA/2J mice; [5]): 1.0%
Intraocular Pressure Decrease (old DBA/2J mice; [6]): 16.6%
Intraocular Pressure Decrease (old DBA/2J mice; [7]): 14.0%
Intraocular Pressure Decrease (old DBA/2J mice; [8]): 11.2%
Intraocular Pressure Decrease (old DBA/2J mice; [9]): 11.1%
Reduction of intraocular pressure (old DBA/2J mice): able to significantly reduce the intraocular pressure
Activity compared with the compounds of the invention [1]: lower than that of the compounds of the invention
Inhibition of the contractions induced by the electric stimulus [1]: able to significantly inhibit the contractions
Ki (CB1 receptors): 0.0433 ± 0.0055 µM
Ki (CB2 receptors): 0.015 ± 0.0032 µM

CC1(C)C2CCC(CNC(=O)c3nn(-c4ccc(Cl)cc4Cl)c4c3CCc3sc(-c5ccccc5)cc3-4)C1C2 (centres unmarked) [Example 3.6, N-myrtanyl-1-(2′,4′-dichlorophenyl)-7-phenyl-4,5-dihydro-1H-thieno[2,3-g]indazol-3-carboxamide]
Ki (CB1 receptors): 0.0864 ± 0.02 µM
Ki (CB2 receptors): 4.35 ± 0.251 µM

Cc1cc2c(s1)-c1c(c(C(=O)NCC3CCC4CC3C4(C)C)nn1-c1ccc(Cl)cc1Cl)C2 (centres unmarked) [Example 3.8, N-myrtanyl-1-(2′,4′-dichlorophenyl)-6-methyl-1,4-dihydro-thieno[3′,2′:4,5]cyclopenta[1,2-c]pyrazole-3-carboxamide]
Ki (CB1 receptors): 0.4 ± 0.071 µM
Ki (CB2 receptors): 0.0306 ± 0.0072 µM

Cc1csc2c1Cc1c(C(=O)NCC3CCC4CC3C4(C)C)nn(-c3ccc(Cl)cc3Cl)c1-2 (centres unmarked) [Example 3.7, N-myrtanyl-5-methyl-1-(2′,4′-dichlorophenyl)-1,4-dihydro-thieno[3′,2′:4,5]cyclopenta[1,2-c]pyrazol-3-carboxamide]
melting point: 112 to 113 °C
Ki (CB1 receptors): 0.919 ± 0.226 µM
Ki (CB2 receptors): 0.0045 ± 0.0008 µM

Cc1c(C(=O)NN2CCCCC2)nn(-c2ccc(Cl)cc2Cl)c1-c1ccc(Cl)cc1 [SR141716A]
Reduction of weight and metabolic and/or cardiovascular risk factors (patients; patients with metabolic syndrome and/or dyslipidemia): effective in reducing both weight and metabolic and/or cardiovascular risk factors
Reduction of metabolic and/or cardiovascular risk factors (patients; patients with type 2 diabetes): effectiveness of Rimonabant in reducing metabolic and/or cardiovascular risk factors has been shown

Cc1cc2c(s1)-c1c(c(C(=O)NCC3CCC4CC3C4(C)C)nn1-c1ccc(F)cc1F)C2 (centres unmarked) [Example 3.2, N-myrtanyl-1-(2′,4′-difluorophenyl)-6-methyl-1,4-dihydrothieno[3′,2′:4,5]cyclopenta[1,2-c]pyrazol-3-carboxamide]
Ki (CB1 receptors): 0.0223 ± 0.025 µM
Ki (CB2 receptors): 0.0058 ± 0.001 µM

Cc1ccc(Cn2nc(C(=O)NC3CC(C)CCC3C(C)C)c3c2-c2sc(C)cc2C3)cc1 (centres unmarked) [Compound (XC), N-menthyl-6-methyl-1-(4′-methylbenzyl)-1,4-dihydro-thieno[3′,2′:4,5]cyclopenta[1,2-c]pyrazol-3-carboxamide]
Intraocular Pressure Decrease (old DBA/2J mice; [2]): 2.9%
Intraocular Pressure Decrease (old DBA/2J mice; [3]): 2.2%
Intraocular Pressure Decrease (old DBA/2J mice; [4]): 0.8%
Intraocular Pressure Decrease (old DBA/2J mice; [5]): 1.5%
Intraocular Pressure Decrease (old DBA/2J mice; [6]): 22.2%
Intraocular Pressure Decrease (old DBA/2J mice; [7]): 22.4%
Intraocular Pressure Decrease (old DBA/2J mice; [8]): 25.0%
Intraocular Pressure Decrease (old DBA/2J mice; [9]): 16.7%
Reduction of intraocular pressure (old DBA/2J mice): able to significantly reduce the intraocular pressure
Activity compared with the compounds of the invention [1]: lower than that of the compounds of the invention
Inhibition of the contractions induced by the electric stimulus [1]: able to significantly inhibit the contractions
Ki (CB1 receptors): 0.033 ± 0.0082 µM
Ki (CB2 receptors): 0.0025 ± 0.0003 µM
